Results on two compounds are retold here after paper PMC10861955 (Heliyon, 2024).

For the experiment, the target named is T1, Helicobacter pylori inosine 5′-monophosphate dehydrogenase (HpIMPDH) (Helicobacter pylori, UniProt P56088).
T1 sequence (P56088 1-481): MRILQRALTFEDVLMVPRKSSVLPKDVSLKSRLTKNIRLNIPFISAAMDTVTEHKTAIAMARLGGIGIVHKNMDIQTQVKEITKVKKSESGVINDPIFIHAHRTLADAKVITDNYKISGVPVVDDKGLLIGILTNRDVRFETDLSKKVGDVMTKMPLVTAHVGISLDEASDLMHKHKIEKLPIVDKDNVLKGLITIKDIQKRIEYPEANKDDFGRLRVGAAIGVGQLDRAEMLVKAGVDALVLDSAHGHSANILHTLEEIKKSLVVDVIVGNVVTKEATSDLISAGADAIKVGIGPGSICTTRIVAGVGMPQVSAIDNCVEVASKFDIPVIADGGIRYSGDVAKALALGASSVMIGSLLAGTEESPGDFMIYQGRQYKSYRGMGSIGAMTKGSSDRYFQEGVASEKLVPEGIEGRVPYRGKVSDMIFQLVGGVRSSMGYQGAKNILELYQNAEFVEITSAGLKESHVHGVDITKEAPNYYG
In words: fluorescence assay of NADH formation, […] HpIMPDH. It is filed as biochemical.

Compound `COc1cc(OC)c2ccc(=O)oc2c1` [Compound 3, 5,7-di-methoxy-2H-chromen-2-one] had a half-maximal inhibitory concentration (IC50) of 2400 nM.

`COc1c2occc2cc2ccc(=O)oc12` [Compound 2, xanthotoxin] came in with an IC50 of 2800 nM.

In general, IC50 refers to the midpoint of a concentration-inhibition curve.
